From patent US20230061319A1, “METHODS OF TREATING TUMORS” (CoImmune, Inc., priority 2020, published 2023)

What was measured:
CMV pp65 specific CTLs [1] = assay: Induction of CMV pp65 specific recall CTLs by PME-CD40L DCs in the presence of mTOR inhibitors; assay type: cell-based, human
Method: (§1) 300 x 10^6 peripheral blood mononuclear cells (PBMCs) were cultured in 30 mL AIM-V media (Thermo Fisher Scientific) in T150 flasks (Corning) for 2 hours to provide for the adherence of monocytes. Non-adherent cells were removed by washing the monolayers twice with cold phosphate buffered saline (PBS) (Cambrex), and the remaining monocytes were cultured in X-VIVO 15 medium (Cambrex) for 5 days, supplemented with 1000 U/mL each of granulocyte macrophage-colony stimulating factor (GM-CSF) (Bayer AG, Leukine® liquid) and IL-4 (R&D Systems). To achieve DC maturation, immature DCs were first cultured on day 5 with 10 ng/mL tumor necrosis factor alpha (TNF-α) (R&D Systems), 1000 µ/mL interferon gamma (IFN-y) (Actimmune), and 1 µg/mL prostaglandin E2 (PGE2) (Sigma). On day 6, phenotypically mature DCs were co-electroporated with RNA encoding CD40L (Argos Lot No. 101606 JSC) at a concentration of 3 ug per million DCs plus either human cytomegalovirus (CMV) pp65 or MART-1 encoding RNAs at 2 µg per million DCs (CMVpp65 RNA-Argos Lot No 071107XF, MART-1-APL RNA-Argos Lot No. 011909HC). Generation of MART-1 RNA and CD40L RNA is described in e.g., DeBenedette et al., J. Immunol. 181(8):5296-5305 (2008).
Electroporated DCs were cultured for an additional 4 hours in X-VIVO 15 media supplemented with 800 µ/mL GM-CSF and 500 µ/mL IL-4 at 1 x 10^6 DCs/mL in low adherence 6-well plates (Costar). After 4 hr, the DCs were harvested by washing with cold PBS and prepared as a frozen formulation at 10 x 10^6 DCs/mL in 20% DMSO and 80% FBS, representing antigen electroporated Post Maturation Electroporated (PME)-CD40L DC preparations.
(§2) PME-CD40L DCs derived from HLA-A2-positive donors and transfected with antigen-encoding mRNAs were co-cultured with purified CD8^+ T cells. All co-cultures were performed in R-10 media. CD8^+ T cells were purified using the CD8+ T Cell Negative Selection Kit II (Miltenyi Biotec) from non-adherent cells harvested from the monocyte adherence step. The CD8^+ cells were mixed with DCs at a 10:1 ratio and incubated in the presence of 0.2 µg/mL IL-2 and 10 ng/mL IL-7 (R&D Systems). DC/T cell co-cultures were re-stimulated on day 7 and supplemented with 20 units/mL IL-2 plus 10 ng/mL IL-7. Induction of primary immune responses to MART-1 and memory/recall responses to CMV pp65 were measured on day 10.
(§3) To identify antigen-specific T cell responses and the phenotype of the antigen specific cells, T cells were harvested on day 10 post-stimulation and incubated with peptide-pulsed T2 target cells at a ratio of 10:1 for 4 hour with Brefeldin A, Monensin (BD Biosciences) and CD107a PE-Cy5. […] After 4 hours of co-culture, responder T cells were stained for 10 minutes with the requisite peptide/pentamer reagent, then washed once and re-stained with CD8-Eflour605, CD45RA-FITC, and CD28-APC. Cells were then washed in PBS and stained with Aquadye (BD Biosciences) for analysis of viability. Labeled cells were then fixed and permeabilized in Fixation/Permeabilization solution (eBiosciences). Cells where then stained with IFN-γ-PECy7, TNFa-AF700 and IL-2-PerCPcy5.5 in permeabilization buffer and resuspended in FACs buffer prior to acquisition.
CD8^+ cytotoxic T lymphocyte (CTL) responses were used to measure the pp65 CMV recall response induced by PME-CD40L DCs in the presence of mTOR inhibitors everolimus and temsirolimus. PME-CD40L DCs encoding CMV pp65 were used to stimulate recall CTL responses in the presence of the mTOR inhibitors under evaluation for compatibility with the CMN-001 product. The expansion of recall CTLs specific for CMV pp65 was determined on day 3 after a second weekly stimulation with PME-CD40L DCs.

MART-1 specific CTLs [2] = assay: Priming of MART-1 specific CTLs by PME-CD40L DCs in the presence of mTOR inhibitors; assay type: cell-based, human; conditions: in the presence of the mTOR inhibitor, 10 ng/ml to 1 ug/ml
Method: as §1, with “Generation of MART-1 RNA and CD40L RNA is described in e.g., DeBenedette et al., J. Immunol. 181(8):5296-5305 (2008).” left out
PME-CD40L DCs derived from HLA-A2-positive donors and transfected with antigen-encoding mRNAs were co-cultured with purified CD8^+ T cells. […] Induction of primary immune responses to MART-1 and memory/recall responses to CMV pp65 were measured on day 10. […]

CMV pp65 specific CTLs [3] = assay: CMV pp65 specific recall CTL effector function (IFN-γ, TNF-α, IL-2 secretion, CD107a expression); assay type: cell-based, human
Method: as §2, §3
To assess the impact mTOR inhibition would have on CTL effector function in vitro, CMV pp65 specific CTLs were assayed for the ability to secret the cytokines IFN-y, TNF-α and IL-2, and express the degranulation marker CD107a, which serves as a surrogate marker to measure lytic activity. Data presented in FIG. 2A and FIG. 2B measures the absolute numbers of CMV […] specific CTLs that secrete IFN-y, TNF-α or IL-2, or express CD107a in response to CMV pp65 peptide pulsed target cells. The absolute numbers of CMV^+ CTLs shown have been corrected for background non-specific responses to display only the antigen specific response for each parameter.

MART-1 specific CTLs [4] = assay: MART-1 specific CTL effector function (IFN-γ, TNF-α, IL-2 secretion, CD107a expression); assay type: cell-based, human; conditions: at the higher concentrations tested; compared to untreated CTLs
Method: as §2
as §3, with “Cells where then stained with IFN-γ-PECy7, TNFa-AF700 and IL-2-PerCPcy5.5 in permeabilization buffer and resuspended in FACs buffer prior to acquisition.” left out

human tumor cell lines [5] = conditions: broad range of human tumor cell lines; cited from earlier work
human tumor cell lines [6] = conditions: xenografts of human tumor cell lines; cited from earlier work
[7] = 10 ng/ml, compared to DC/CTL co-cultures without mTOR inhibitor, day 3 after second weekly stimulation

Row | Structure (SMILES) | numbers of CMV pp65 specific CTLs (CMV pp65 specific CTLs [1]; [7]) | percentage of CMV pp65 specific CTLs (CMV pp65 specific CTLs [1]; [7]) | increase in absolute numbers of CMV+ CTL (CMV pp65 specific CTLs [1]; 1 µg/ml) | increase in percentage of CMV+ CTL (CMV pp65 specific CTLs [1]; 1 µg/ml) | priming of MART-1 specific CTLs by PME-CD40L DC (MART-1 specific CTLs [2]) | numbers of CMV+ CTL secreting a cytokine or expressing CD107a (CMV pp65 specific CTLs [3]; 10 ng/ml, compared to untreated CTLs) | increase in effector function of CMV+ CTL (CMV pp65 specific CTLs [3]; 1 µg/ml) | numbers of MART-1+ CTL secreting a cytokine or expressing CD107a (MART-1 specific CTLs [4]) | antiproliferative activity in vitro (human tumor cell lines [5]) | antiproliferative activity in murine tumor xenograft models (human tumor cell lines [6])
1 | CO[C@H]1C[C@@H]2CC[C@@H](C)[C@@](O)(O2)C(=O)C(=O)N2CCCC[C@H]2C(=O)O[C@H]([C@H](C)C[C@@H]2CC[C@@H](OC(=O)C(C)(CO)CO)[C@H](OC)C2)CC(=O)[C@H](C)/C=C(\C)[C@@H](O)[C@@H](OC)C(=O)[C@H](C)C[C@H](C)/C=C/C=C/C=C/1C [temsirolimus] | increase | increase | evident | evident | able to prime | increased | maintained | increased |  | 
2 | CO[C@H]1C[C@@H]2CC[C@@H](C)[C@@](O)(O2)C(=O)C(=O)N2CCCC[C@H]2C(=O)O[C@H]([C@H](C)C[C@@H]2CC[C@@H](OP(C)(C)=O)[C@H](OC)C2)CC(=O)[C@H](C)/C=C(\C)[C@@H](O)[C@@H](OC)C(=O)[C@H](C)C[C@H](C)/C=C/C=C/C=C/1C [Ridaforolimus, ridaforolimus] |  |  |  |  |  |  |  |  | antiproliferative activity | antiproliferative activity
